This note sets out measurements from PubChem BioAssay AID256 (DTP/NCI, 2004).

The test has as its system CD2F1 mice, L1210 leukemia ip, survival T/C. Put plainly: NCI In Vivo Anticancer Drug Screen. Data for tumor model L1210 Leukemia (intraperitoneal) in CD2F1 (CDF1) mice. As to conditions: higher = longer survival. A digest of the protocol:
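Ratio T/C, where T is the treated-group value and C the vehicle-dosed control value, from mice implanted with a transplantable tumor.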

Setting [1] is: endpoint: mean survival time, dose: 100.0 mg/kg/injection, schedule: Q01DX009 (ip), vehicle: saline with Tween-80.
The mark [2] stands for this setting: endpoint: mean survival time, dose: 100.0 mg/kg/injection, schedule: Q04DX003 (ip), vehicle: saline with Tween-80.
The mark [3] stands for this setting: endpoint: mean survival time, dose: 200.0 mg/kg/injection, schedule: Q01DX009 (ip), vehicle: saline with Tween-80.
[4] abbreviates: endpoint: mean survival time, dose: 200.0 mg/kg/injection, schedule: Q04DX003 (ip), vehicle: saline with Tween-80.
The mark [5] stands for this setting: endpoint: mean survival time, dose: 400.0 mg/kg/injection, schedule: Q01DX009 (ip), vehicle: saline with Tween-80.
Where [6] appears, read: endpoint: mean survival time, dose: 50.0 mg/kg/injection, schedule: Q04DX002 (ip), vehicle: saline with Tween-80.
Where [7] appears, read: endpoint: mean survival time, dose: 100.0 mg/kg/injection, schedule: Q04DX002 (ip), vehicle: saline with Tween-80.
Where [8] appears, read: endpoint: mean survival time, dose: 100.0 mg/kg/injection, schedule: Q01DX001 (ip), vehicle: saline.
The mark [9] stands for this setting: endpoint: mean survival time, dose: 200.0 mg/kg/injection, schedule: Q01DX001 (ip), vehicle: saline.
[10] abbreviates: endpoint: mean survival time, dose: 400.0 mg/kg/injection, schedule: Q01DX001 (ip), vehicle: saline.

Values joined by “and” are separate entries in the source; they are usually repeats but may differ in a detail not shown here. Equal entries are not always repeated. Toxic doses and inconclusive results are not listed.

Turning to `O=C(O)Cc1cccc2c(=O)cc(-c3ccccc3)oc12`, the T/C was 113 % of control and 109 % of control (endpoint: median survival time, dose: 12.5 mg/kg/injection, schedule: Q01DX009 (ip), vehicle: suspension in saline); 113 % of control and 105 % of control (endpoint: median survival time, dose: 25.0 mg/kg/injection, schedule: Q01DX009 (ip), vehicle: suspension in saline); 112 % of control (endpoint: median survival time, dose: 30.0 mg/kg/injection, schedule: Q01DX009 (ip), vehicle: saline with Tween-80); 100 % of control (endpoint: median survival time, dose: 30.0 mg/kg/injection, schedule: Q01DX009 (ip), vehicle: sodium bicarbonate); 123 % of control (endpoint: median survival time, dose: 44.0 mg/kg/injection, schedule: Q01DX009 (ip), vehicle: saline with Tween-80); 113 % of control (endpoint: median survival time, dose: 44.0 mg/kg/injection, schedule: Q01DX009 (ip), vehicle: sodium bicarbonate). For the same molecule, the T/C (endpoint: median survival time, dose: 45.0 mg/kg/injection, schedule: Q01DX009 (ip), vehicle: sodium bicarbonate) was 107 % of control; the T/C (endpoint: median survival time, dose: 50.0 mg/kg/injection, schedule: Q01DX009 (ip), vehicle: suspension in saline) was 116 % of control; the T/C (endpoint: median survival time, dose: 67.0 mg/kg/injection, schedule: Q01DX001 (ip), vehicle: sodium bicarbonate) was 101 % of control; the T/C (endpoint: median survival time, dose: 67.0 mg/kg/injection, schedule: Q01DX009 (ip), vehicle: sodium bicarbonate) was 113 % of control and 112 % of control; the T/C (endpoint: median survival time, dose: 100.0 mg/kg/injection, schedule: Q01DX001 (ip), vehicle: sodium bicarbonate) is 108 % of control; the T/C (endpoint: median survival time, dose: 100.0 mg/kg/injection, schedule: Q01DX009 (ip), vehicle: saline with Tween-80) is 124 % of control. Besides, the T/C by setting is: (endpoint: median survival time, dose: 100.0 mg/kg/injection, schedule: Q01DX009 (ip), vehicle: sodium bicarbonate) 119 % of control and 124 % of control; (endpoint: median survival time, dose: 100.0 mg/kg/injection, schedule: Q01DX009 (ip), vehicle: suspension in saline) 113 % of control; (endpoint: median survival time, dose: 150.0 mg/kg/injection, schedule: Q01DX001 (ip), vehicle: sodium bicarbonate) 112 % of control; (endpoint: median survival time, dose: 150.0 mg/kg/injection, schedule: Q01DX009 (ip), vehicle: saline with Tween-80) 108 % of control; (endpoint: median survival time, dose: 175.0 mg/kg/injection, schedule: Q01DX009 (ip), vehicle: sodium bicarbonate) 156 % of control; (endpoint: median survival time, dose: 200.0 mg/kg/injection, schedule: Q01DX009 (ip), vehicle: suspension in saline) 103 % of control. Besides, the T/C is 108 % of control (endpoint: median survival time, dose: 223.0 mg/kg/injection, schedule: Q01DX001 (ip), vehicle: sodium bicarbonate) and 121 % of control (endpoint: median survival time, dose: 333.0 mg/kg/injection, schedule: Q01DX001 (ip), vehicle: sodium bicarbonate).

In the case of `CC1CNC(=S)S1` (stereo not given), the T/C runs as follows: under setting [1], 94 % of control; under setting [2], 97 % of control; under setting [3], 109 % of control; under setting [4], 94 % of control; under setting [5], 105 % of control; (endpoint: mean survival time, dose: 400.0 mg/kg/injection, schedule: Q04DX003 (ip), vehicle: saline with Tween-80) 101 % of control.

Consider `CCCOC(=O)COc1ccc(F)cc1F`, for which the T/C was 103 % of control (endpoint: mean survival time, dose: 25.0 mg/kg/injection, schedule: Q04DX002 (ip), vehicle: saline with Tween-80); 100 % of control under setting [6]; 92 % of control and 95 % of control under setting [7]; 95 % of control (endpoint: mean survival time, dose: 400.0 mg/kg/injection, schedule: Q04DX002 (ip), vehicle: saline with Tween-80).

For `O=[N+]([O-])c1ccc(N=C(Cl)c2ccccc2)cc1`, the T/C is 101 % of control under setting [1], 104 % of control under setting [3] and 104 % of control under setting [5].

Take `CNc1ccc(C(=O)O)cc1C(F)(F)F`: the T/C reads like this: under setting [8], 102 % of control; under setting [9], 101 % of control; under setting [10], 102 % of control.

`[N-]=[N+]=CC(=O)CCC(=O)C=[N+]=[N-]`: the T/C is, setting by setting: (endpoint: mean survival time, dose: 12.5 mg/kg/injection, schedule: Q01DX009 (ip), vehicle: other) 106 % of control; (endpoint: mean survival time, dose: 25.0 mg/kg/injection, schedule: Q01DX009 (ip), vehicle: other) 90 % of control.

Take `CCOC(=O)CC(=O)NCCc1ccccc1OC`: the T/C runs as follows: (endpoint: mean survival time, dose: 100.0 mg/kg/injection, schedule: Q01DX001 (ip), vehicle: saline with Tween-80) 102 % of control; (endpoint: mean survival time, dose: 200.0 mg/kg/injection, schedule: Q01DX001 (ip), vehicle: saline with Tween-80) 105 % of control; (endpoint: mean survival time, dose: 400.0 mg/kg/injection, schedule: Q01DX001 (ip), vehicle: saline with Tween-80) 102 % of control.

As to `C[N+](C)(C)C(Cc1c[nH]c2ccccc12)C(=O)O` (stereo not given), the T/C reads like this: under setting [8], 91 % of control; (endpoint: mean survival time, dose: 100.0 mg/kg/injection, schedule: Q04DX003 (ip), vehicle: saline) 96 % of control and 100 % of control; under setting [9], 101 % of control; (endpoint: mean survival time, dose: 200.0 mg/kg/injection, schedule: Q04DX003 (ip), vehicle: saline) 105 % of control and 97 % of control; under setting [10], 95 % of control; (endpoint: mean survival time, dose: 400.0 mg/kg/injection, schedule: Q04DX003 (ip), vehicle: saline) 94 % of control and 95 % of control.

Regarding `COc1cc(NC(N)=O)ccc1Nc1c2ccc(N)cc2nc2cc(N)ccc12`, the T/C runs as follows: (endpoint: mean survival time, dose: 0.5 mg/kg/injection, schedule: Q01DX009 (ip), vehicle: saline) 100 % of control; (endpoint: mean survival time, dose: 1.0 mg/kg/injection, schedule: Q01DX009 (ip), vehicle: saline) 98 % of control; (endpoint: mean survival time, dose: 2.0 mg/kg/injection, schedule: Q01DX009 (ip), vehicle: saline) 102 % of control; (endpoint: mean survival time, dose: 4.0 mg/kg/injection, schedule: Q01DX009 (ip), vehicle: saline) 102 % of control; (endpoint: mean survival time, dose: 8.0 mg/kg/injection, schedule: Q01DX009 (ip), vehicle: saline) 103 % of control; (endpoint: mean survival time, dose: 16.0 mg/kg/injection, schedule: Q01DX009 (ip), vehicle: saline) 111 % of control.

Consider `O=S(=O)([O][Hg][CH2]C1Cc2ccccc2O1)[O][Hg][CH2]C1Cc2ccccc2O1` (stereo not given), for which the T/C runs as follows: (endpoint: mean survival time, dose: 6.25 mg/kg/injection, schedule: Q01DX009 (ip), vehicle: Klucel (hydroxypropylcellulose) (HPC)) 95 % of control; (endpoint: mean survival time, dose: 12.5 mg/kg/injection, schedule: Q01DX009 (ip), vehicle: Klucel (hydroxypropylcellulose) (HPC)) 92 % of control; (endpoint: mean survival time, dose: 25.0 mg/kg/injection, schedule: Q01DX009 (ip), vehicle: Klucel (hydroxypropylcellulose) (HPC)) 96 % of control; (endpoint: median survival time, dose: 6.25 mg/kg/injection, schedule: Q04DX003 (ip), vehicle: saline with Tween-80) 100 % of control; (endpoint: median survival time, dose: 12.5 mg/kg/injection, schedule: Q04DX003 (ip), vehicle: saline with Tween-80) 100 % of control; (endpoint: median survival time, dose: 25.0 mg/kg/injection, schedule: Q04DX003 (ip), vehicle: saline with Tween-80) 100 % of control.

As for `Cc1c(N=O)c(C)[n+]([O-])n1O`, the T/C is 89 % of control (endpoint: mean survival time, dose: 50.0 mg/kg/injection, schedule: Q01DX009 (ip), vehicle: Klucel (hydroxypropylcellulose) (HPC)); 97 % of control (endpoint: mean survival time, dose: 100.0 mg/kg/injection, schedule: Q01DX009 (ip), vehicle: Klucel (hydroxypropylcellulose) (HPC)); 97 % of control (endpoint: mean survival time, dose: 200.0 mg/kg/injection, schedule: Q01DX009 (ip), vehicle: Klucel (hydroxypropylcellulose) (HPC)).

As for `COc1ccc(OC)c(NC(=O)NCc2ccccc2Cl)c1`, the T/C is 90 % of control under setting [1], 100 % of control under setting [3] and 87 % of control under setting [5].

Regarding `Nc1cc(Cl)c(N)c(N)n1`, the T/C was 100 % of control under setting [1] and 91 % of control under setting [3].

Turning to `O=C1N(CCO)CNC1(c1ccccc1)c1ccccc1`, the T/C reads like this: (endpoint: mean survival time, dose: 50.0 mg/kg/injection, schedule: Q04DX003 (ip), vehicle: saline with Tween-80) 94 % of control; under setting [2], 107 % of control; under setting [4], 98 % of control.

Regarding `c1ccc(C[n+]2cccc3ccccc32)cc1`, the T/C reads like this: (endpoint: mean survival time, dose: 5.0 mg/kg/injection, schedule: Q04DX003 (ip), vehicle: saline with Tween-80) 101 % of control; (endpoint: mean survival time, dose: 10.0 mg/kg/injection, schedule: Q04DX003 (ip), vehicle: saline with Tween-80) 98 % of control; (endpoint: mean survival time, dose: 20.0 mg/kg/injection, schedule: Q04DX003 (ip), vehicle: saline with Tween-80) 98 % of control.

In the case of `O/N=C(\c1ccccc1)C1C(/C(=N/O)c2ccccc2)C1c1ccccc1` (stereo not given), the T/C reads like this: under setting [6], 90 % of control; under setting [7], 87 % of control.
